Data reported in US10071964B2, “Disubstituted piperidines as butyrylcholinesterase inhibitors” (priority 2015, dated 2018).

Legend:
[1] = biological target: T1, murine acetylcholinesterase (mAChE) (Mus musculus, UniProt P21836); test: Ellman's method enzyme assay, mAChE inhibition; format: biochemical; details: Table 2, formula (II); for % inhibition at 10 μM mAChE: 10 μM compound, n.i. = no inhibition
T1 sequence (P21836 32-614): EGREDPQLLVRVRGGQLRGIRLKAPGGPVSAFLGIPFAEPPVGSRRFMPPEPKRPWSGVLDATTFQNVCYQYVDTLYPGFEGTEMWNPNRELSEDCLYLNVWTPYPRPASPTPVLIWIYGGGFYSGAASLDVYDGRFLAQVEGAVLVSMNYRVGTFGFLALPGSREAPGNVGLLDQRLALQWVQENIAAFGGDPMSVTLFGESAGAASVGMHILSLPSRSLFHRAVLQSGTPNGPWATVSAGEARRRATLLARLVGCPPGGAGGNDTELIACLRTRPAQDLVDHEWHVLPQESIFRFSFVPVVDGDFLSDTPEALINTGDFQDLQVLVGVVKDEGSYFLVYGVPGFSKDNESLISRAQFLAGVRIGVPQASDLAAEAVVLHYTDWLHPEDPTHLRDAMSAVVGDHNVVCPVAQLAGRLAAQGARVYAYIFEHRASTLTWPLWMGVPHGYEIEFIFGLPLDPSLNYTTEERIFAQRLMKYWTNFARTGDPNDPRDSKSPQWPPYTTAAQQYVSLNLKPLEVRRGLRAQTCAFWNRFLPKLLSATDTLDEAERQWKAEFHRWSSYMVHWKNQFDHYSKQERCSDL
Source text: (§1) Ellman's method was used to evaluate the inhibitory activities of the synthesized compounds against the cholinesterases. […] As a substrate butyrylthiocholine (BTC) and acetylthiocholine (ATC) iodides were used for BChE and AChE, respectively. […] For the reference sample, 1% dimethylsulfoxide (DMSO) replaced the inhibitor's solution.
(§2) Potency of the inhibitor is expressed as a residual activity (RA) of the enzyme at the employed inhibitor's concentration, half maximal inhibitory concentration (IC50 value) and as an inhibition constant (Ki).
(§3) The enzyme reactions were carried out using murine acetylcholinesterase (mAChE) and human recombinant butyrylcholinesterase (huBChE). From the lyophilised powders of both enzymes, the solutions were obtained by dissolution of the powders in 10 mM MES buffer (pH 6.5) to reach the concentration of 4 mg/mL. The concentrated enzyme solution was diluted prior use in 100 mM phosphate buffer (pH 8.0) to reach the activity of the enzyme in the assay of approximately 500 mAu per minute.
(§4) ATCI in BTCI solutions were prepared in 100 mM phosphate buffer (pH 8.0) to reach the final concentration in the assay of 500 μM.
Stock solutions of compounds were prepared in DMSO in a concentration of 10 mM.
(§5) Enzyme solutions were prepared by dilution of the concentrated stocks in the 100 mM phosphate buffer (pH 8.0). […] Enzyme reaction was started with the addition of the substrate. The DMSO concentration in the test solution was always 1%. […] For the determination of blank (b) the phosphate buffer replaced the enzyme solution. Initial velocity of the enzyme reaction (v0) was determined from the linear curve of the enzyme reaction product formation, where each measurement was performed in triplicate. For the initial screening of inhibition ability, […] concentration of the investigated compounds was used. Compounds were pipetted in the corresponding wells to reach the final concentration of 10 μM. Tested compound and the enzyme solution were first preincubated for 300s, followed by the substrate addition, which triggered the enzyme reaction. The initial velocity in presence of the inhibitor was further calculated (vi). The inhibition capability was expressed as residual activity (RA=(vi−b)/(vo−b)).
(§6) IC50 values were determined by plotting the RA versus the concentration of the investigated compound.
(§7) Where X is a common logarithm of the concentration of the inhibitor and Y is the residual activity. For solving the equation Gnuplot software and an in-house python script were used. For the determination of the inhibition constant full progress curves of the product formation in presence and absence of investigated compounds were monitored. The curves were submitted in the ENZO web-application, which allows solving of numerical equations.

[2] = biological target: human recombinant butyrylcholinesterase (huBChE) (Homo sapiens, UniProt P06276); test: biochemical; details: read-out: IC50 ± STD (μM) huBChE
Source text: as §1, §2, §3, §4, §5, §6, §7

human recombinant butyrylcholinesterase (huBChE), sequence (P06276 29-602): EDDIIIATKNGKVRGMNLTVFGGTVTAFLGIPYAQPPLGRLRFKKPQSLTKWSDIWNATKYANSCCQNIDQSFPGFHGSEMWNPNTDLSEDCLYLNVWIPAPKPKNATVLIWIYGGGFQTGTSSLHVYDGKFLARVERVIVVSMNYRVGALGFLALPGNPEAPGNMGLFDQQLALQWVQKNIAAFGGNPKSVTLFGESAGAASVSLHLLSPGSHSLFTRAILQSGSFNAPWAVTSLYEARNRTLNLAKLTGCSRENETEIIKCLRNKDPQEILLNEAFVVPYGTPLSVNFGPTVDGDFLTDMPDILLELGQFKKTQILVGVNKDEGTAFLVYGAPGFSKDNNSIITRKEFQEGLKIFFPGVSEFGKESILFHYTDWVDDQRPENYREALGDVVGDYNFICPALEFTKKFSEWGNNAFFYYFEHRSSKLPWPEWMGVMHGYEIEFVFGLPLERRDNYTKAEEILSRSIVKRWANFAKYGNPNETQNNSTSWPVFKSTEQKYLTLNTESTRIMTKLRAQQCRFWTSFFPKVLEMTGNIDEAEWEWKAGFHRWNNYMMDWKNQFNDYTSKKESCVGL

Row | SMILES | % inhibition at 10 μM mAChE [1] | IC50 [2] [µM] | IC50 ([1]; substrate ATCI 500 μM, read-out: IC50 ± STD (μM) mAChE) [µM]
1 | O=S(=O)(NCC1CCCN(Cc2ccccc2)C1)c1ccc2ccccc2c1 (stereo not shown) | n.i. | – | –
2 | CN(CC1CCCN(Cc2ccccc2)C1)S(=O)(=O)c1ccc2ccccc2c1 (stereo not shown) | n.i. | – | –
3 | CCN(CC1CCCN(Cc2ccccc2)C1)S(=O)(=O)c1ccc2ccccc2c1 (stereo not shown) | n.i. | 0.038 ± 0.0026 | –
4 | CCCN(CC1CCCN(Cc2ccccc2)C1)S(=O)(=O)c1ccc2ccccc2c1 (stereo not shown) | n.i. | 0.0428 ± 0.0064 | –
5 | CCCCN(CC1CCCN(Cc2ccccc2)C1)S(=O)(=O)c1ccc2ccccc2c1 (stereo not shown) | n.i. | 0.0355 ± 0.0044 | –
6 | COCCCN(CC1CCCN(Cc2ccccc2)C1)S(=O)(=O)c1ccc2ccccc2c1 (stereo not shown) | n.i. | – | –
7 | COCCN(CC1CCN(Cc2ccccc2)CC1)S(=O)(=O)c1ccc2ccccc2c1 | n.i. | – | –
8 | COCCCN(CC1CCN(Cc2ccccc2)CC1)S(=O)(=O)c1ccc2ccccc2c1 | n.i. | – | –
9 | O=S(=O)(NCC1CCN(Cc2ccccc2)CC1)c1ccc2ccccc2c1 | – | – | 1.78 ± 0.085
10 | COCCN(CC1CCN(C2Cc3ccccc3C2)CC1)S(=O)(=O)c1ccc2ccccc2c1 | n.i. | – | –
11 | COCCCN(CC1CCN(C2Cc3ccccc3C2)CC1)S(=O)(=O)c1ccc2ccccc2c1 | n.i. | – | –
12 | Cc1cccc(CN2CCCC(CNS(=O)(=O)c3ccc4ccccc4c3)C2)c1 (stereo not shown) | 57 ± 3.55% | 0.287 ± 0.022 | –
13 | O=S(=O)(NCC1CCCN(Cc2ccc(F)cc2)C1)c1ccc2ccccc2c1 (stereo not shown) | 75 ± 4.19% | 0.583 ± 0.043 | –
14 | Cc1nc(CN2CCCC(CNS(=O)(=O)c3ccc4ccccc4c3)C2)cs1 (stereo not shown) | 71 ± 3.68% | 0.366 ± 0.031 | –
15 | O=S(=O)(NCC1CCCN(Cc2ccc(F)cc2Cl)C1)c1ccc2ccccc2c1 (stereo not shown) | 73 ± 3.60% | 0.347 ± 0.06 | –
16 | O=S(=O)(NCC1CCCN(Cc2ccncc2)C1)c1ccc2ccccc2c1 (stereo not shown) | n.i. | 1.67 ± 0.256 | –
17 | N#Cc1ccc(CN2CCCC(CNS(=O)(=O)c3ccc4ccccc4c3)C2)cc1 (stereo not shown) | n.i. | 2.09 ± 0.328 | –
18 | CN(CC1CCCN(Cc2ccc(F)cc2)C1)S(=O)(=O)c1ccc2ccccc2c1 (stereo not shown) | n.i. | 0.427 ± 0.044 | –
19 | COCCN(CC1CCCN(Cc2ccccc2)C1)S(=O)(=O)c1cccc2ccccc12 (stereo not shown) | n.i. | 0.059 ± 0.0054 | –
20 | COCCN(CC1CCCN(Cc2ccccc2)C1)S(=O)(=O)c1ccc2ccc(OC)cc2c1 (stereo not shown) | n.i. | 0.156 ± 0.033 | –
21 | COCCCN(CC1CCCN(Cc2ccccc2)C1)S(=O)(=O)c1ccc2ccc(OCC#N)cc2c1 (stereo not shown) | n.i. | 0.113 ± 0.008 | –
